We go through twelve compounds from ChEMBL document CHEMBL1201862, “PubChem BioAssay data set” (2004).

Test systems include M19-MEL; SK-MEL-28; SK-MEL-2; NCI-H460; SK-MEL-5; SNB-78; HCT-116; OVCAR-8; SK-OV-3; IGROV-1; HCT-15; HOP-62; M14; NCI-H23; SNB-19; SF-295; Malme-3M; A498; EKVX; Hs-578T.
What all share (test): DTP human tumour cell line panel, 48 h

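Five compound concentrations were applied to cells in 96-well plates for 48 hours; endpoints were derived by simple linear interpolation of the resulting dose-response curve. At the GI50, growth is halved.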 Activity calls are given as the source filed them. Rule as the data show it: active = GI50 up to about 1.1 µM and inactive = higher. Some results are limits rather than exact numbers.

In the case of `O=C(c1cccs1)N(C(=S)N1CCN(c2ccccc2)CC1)C1CCCCC1`, the GI50 in the assay on M19-MEL, in the assay with SK-MEL-28, in the assay on SK-MEL-2, in the assay with NCI-H460, with SK-MEL-5 and in the assay on SNB-78 was > 100 µM (inactive) each time. Besides, the GI50 (commonly the concentration giving 50% growth inhibition) in the assay on HCT-116 was > 100 µM (inactive); with OVCAR-8, > 100 µM (inactive); in the assay on SK-OV-3, > 100 µM (inactive); with IGROV-1, > 100 µM (inactive); in the assay with HCT-15, over 100 µM; in the assay with HOP-62 it was > 100 µM (inactive). Moreover, the GI50 in the assay on M14, with NCI-H23, in the assay with SNB-19, with SF-295 and in the assay on Malme-3M was > 100 µM (inactive) throughout.

For the compound `CC(=O)N(C)C=C1C(=O)N(C)C(=O)N(C)C1=O`, the GI50 in the assay with M19-MEL, with SK-MEL-28, with A498, with EKVX, with SK-MEL-2 and in the assay with NCI-H460 was > 100 µM (inactive) each time. Besides, the GI50 was > 100 µM (inactive) with SK-MEL-5; > 100 µM (inactive) with HCT-116; > 100 µM (inactive) with OVCAR-8; over 100 µM in the assay on HCT-15; > 100 µM (inactive) in the assay with M14; > 100 µM (inactive) in the assay on NCI-H23. The GI50 in the assay on SNB-19, in the assay on SF-295 and in the assay on Malme-3M was > 100 µM (inactive) each time.

As to `NC(=O)CCCC(NCc1c2ccccc2nc2ccccc12)C(=O)O` (stereo unspecified), the GI50 is 45.2 µM (inactive) in the assay with M19-MEL; > 100 µM (inactive) with SK-MEL-28; 56.6 µM (inactive) in the assay on EKVX; 90.6 µM (inactive) with SK-MEL-2; 39.5 µM (inactive) in the assay with NCI-H460; 94.6 µM (inactive) in the assay on SK-MEL-5. Further, the GI50 was > 10 µM (inactive) with HCT-116; 42.7 µM (inactive) in the assay on OVCAR-8; > 100 µM (inactive) with SK-OV-3; 48.5 µM (inactive) in the assay with IGROV-1; 36.5 µM in the assay on HCT-15; > 100 µM (inactive) with HOP-62. For the same compound, the GI50 is 42.4 µM (inactive) in the assay with M14, 53.1 µM (inactive) in the assay on NCI-H23, 83.4 µM (inactive) in the assay with SF-295 and 77.1 µM (inactive) with Malme-3M.

Regarding `COC(=O)C1=C(O)c2cc(OC)c(OC)c(OC)c2[C@H](c2cc(OC)c(OC)c(OC)c2)C1C(=O)OC` (stereo partly specified), the GI50 in the assay with SK-MEL-28 was 21.8 µM (inactive); in the assay with A498, 30.1 µM (inactive); in the assay with EKVX, 55.5 µM (inactive); in the assay with NCI-H460, 7.18 µM (inactive); in the assay on SK-MEL-5, 12.3 µM (inactive); in the assay with SNB-78, 32.1 µM (inactive). Further, the GI50 in the assay with HCT-116 was 37.6 µM (inactive); in the assay on OVCAR-8 it was 36.4 µM (inactive); in the assay with SK-OV-3, 35 µM (inactive); with IGROV-1, 36.2 µM (inactive); in the assay with HCT-15, 28.8 µM; in the assay on HOP-62 it was 59.8 µM (inactive). Besides, the GI50 is 26 µM (inactive) with M14; 31.2 µM (inactive) in the assay on NCI-H23; 38.3 µM (inactive) in the assay on SNB-19; 13.6 µM (inactive) in the assay on SF-295; 49.3 µM (inactive) in the assay on Malme-3M.

Regarding `O=C(NCCc1ccccc1)C1C(=O)C(=O)N(CCc2ccccc2)C1=O` (stereo unspecified), the GI50 with M19-MEL, with SK-MEL-28, in the assay on EKVX, in the assay with SK-MEL-2, in the assay on SNB-78 and in the assay on HCT-116 was > 100 µM (inactive) in each case. The GI50 is 48.4 µM (inactive) in the assay with SK-OV-3; > 100 µM (inactive) in the assay on IGROV-1; over 100 µM in the assay on HCT-15; > 100 µM (inactive) with M14; > 100 µM (inactive) in the assay with NCI-H23; > 100 µM (inactive) in the assay with SNB-19. The GI50 with SF-295 and in the assay on Malme-3M was > 100 µM (inactive) each time.

On to `Cc1cc(N(CCC#N)CCC#N)ccc1/C=C/C(=O)Nc1ccccc1Cl`, for which the GI50 in the assay on M19-MEL, in the assay with SK-MEL-28, in the assay with A498, in the assay on EKVX, in the assay on SK-MEL-2 and with NCI-H460 was > 100 µM (inactive) each time. For the same compound, the GI50 is > 100 µM (inactive) with SK-MEL-5; > 100 µM (inactive) in the assay on HCT-116; > 100 µM (inactive) in the assay with OVCAR-8; > 100 µM (inactive) in the assay with SK-OV-3; > 100 µM (inactive) with IGROV-1; over 100 µM in the assay on HCT-15. For the same compound, the GI50 with HOP-62, in the assay on M14, with NCI-H23, in the assay on SNB-19, in the assay with SF-295 and in the assay with Malme-3M was > 100 µM (inactive) throughout.

On to `C/C=C/C(=O)Oc1cccc2cccnc12`, for which the GI50 is 12.5 µM (inactive) in the assay with M19-MEL; 14.5 µM (inactive) in the assay with SK-MEL-28; 6.85 µM (inactive) in the assay with EKVX; 3.32 µM (inactive) in the assay with NCI-H460; 14.5 µM (inactive) in the assay on SK-MEL-5; 27.4 µM (inactive) in the assay with SNB-78. For the same compound, the GI50 with HCT-116 is 3.76 µM (inactive); in the assay on OVCAR-8, 4.61 µM (inactive); with SK-OV-3, 32.9 µM (inactive); in the assay on IGROV-1, 24.6 µM (inactive); in the assay with HCT-15 it was 7 µM; with HOP-62, 26.7 µM (inactive). For the same compound, the GI50 in the assay with M14 was 3.79 µM (inactive); with NCI-H23 it was 4.91 µM (inactive); in the assay with SNB-19 it was 48.8 µM (inactive); in the assay on SF-295 it was 12.1 µM (inactive); with Malme-3M it was 1.45 µM (inactive).

`O=C1CC2(CCC3=C(O2)c2ccccc2NC(=O)C3)C(=O)c2ccccc2N1` (stereo unspecified): the GI50 in the assay with M19-MEL, in the assay with SK-MEL-28, in the assay with EKVX, with SK-MEL-2, in the assay with NCI-H460 and in the assay on SK-MEL-5 was > 100 µM (inactive) in each case. Further, the GI50 is > 100 µM (inactive) with SNB-78; > 100 µM (inactive) in the assay with HCT-116; > 100 µM (inactive) in the assay with OVCAR-8; > 100 µM (inactive) with IGROV-1; over 100 µM with HCT-15; > 100 µM (inactive) in the assay with HOP-62. Moreover, the GI50 is > 100 µM (inactive) with M14; > 100 µM (inactive) with NCI-H23; 98.6 µM (inactive) in the assay with SNB-19; > 100 µM (inactive) in the assay on SF-295; > 100 µM (inactive) in the assay with Malme-3M.

Turning to `CCOC(=O)c1ccc2c(=O)n3c(C(=O)OCC)ccc3c(=O)n12`, the GI50 in the assay with SK-MEL-28, in the assay on A498, in the assay with EKVX, with SK-MEL-2, in the assay on NCI-H460 and with SK-MEL-5 was > 100 µM (inactive) each time. The GI50 is > 100 µM (inactive) in the assay on HCT-116; > 100 µM (inactive) in the assay with OVCAR-8; 68.2 µM (inactive) with SK-OV-3; > 100 µM (inactive) in the assay with IGROV-1; over 100 µM in the assay on HCT-15; > 100 µM (inactive) in the assay on Hs-578T. The GI50 with HOP-62, in the assay with M14, in the assay with NCI-H23, in the assay on SNB-19, with SF-295 and in the assay on Malme-3M was > 100 µM (inactive) each time.

On to `COc1ccc(OC)c(CC(C)N)c1` (stereo unspecified), for which the GI50 in the assay with M19-MEL, in the assay with SK-MEL-28, with A498, in the assay with EKVX, in the assay with SK-MEL-2 and in the assay with NCI-H460 was > 100 µM (inactive) throughout. Further, the GI50 in the assay on SK-MEL-5 is > 100 µM (inactive); in the assay with HCT-116, > 100 µM (inactive); in the assay on OVCAR-8, > 100 µM (inactive); with SK-OV-3 it was > 100 µM (inactive); with IGROV-1, > 100 µM (inactive); in the assay on HCT-15, over 100 µM. The GI50 in the assay with HOP-62, in the assay on M14, in the assay with NCI-H23, in the assay on SNB-19, in the assay with SF-295 and with Malme-3M was > 100 µM (inactive) throughout.

Regarding `Oc1c(C(Nc2ccccn2)c2ccccc2)ccc2cccnc12` (stereo unspecified), the GI50 in the assay with SK-MEL-28 was 6.22 µM (inactive); in the assay with A498, 10.2 µM (inactive); in the assay with EKVX it was 3.01 µM (inactive); in the assay with SK-MEL-2, 3.55 µM (inactive); with NCI-H460, 2.11 µM (inactive); in the assay on SK-MEL-5, 3.66 µM (inactive). The GI50 with HCT-116 was 3.26 µM (inactive); in the assay on OVCAR-8, 4.01 µM (inactive); in the assay on SK-OV-3, 9.4 µM (inactive); in the assay with IGROV-1, 3.33 µM (inactive); in the assay on HCT-15, 1.98 µM; with Hs-578T it was 12.4 µM (inactive). For the same compound, the GI50 in the assay on HOP-62 was 4.94 µM (inactive); in the assay with M14, 3.08 µM (inactive); with NCI-H23 it was 3.6 µM (inactive); in the assay on SNB-19, 5.51 µM (inactive); in the assay with SF-295, 3.55 µM (inactive); in the assay on Malme-3M, 1.46 µM (inactive).

With `O=C1c2ccccc2C(=O)c2c1ccc1c2N=C(c2ccc(Br)cc2)CC(c2cccc3ccccc23)N1` (stereo unspecified), the GI50 with SK-MEL-28, with EKVX, in the assay with SK-MEL-2, in the assay with NCI-H460, in the assay with SK-MEL-5 and in the assay with SNB-78 was > 100 µM (inactive) each time. For the same compound, the GI50 in the assay with OVCAR-8 is > 100 µM (inactive); in the assay on SK-OV-3, > 100 µM (inactive); in the assay on IGROV-1 it was > 100 µM (inactive); with HCT-15, over 100 µM; in the assay on HOP-62 it was > 100 µM (inactive); in the assay with M14, > 100 µM (inactive). Moreover, the GI50 in the assay on NCI-H23, in the assay with SNB-19, in the assay with SF-295 and in the assay on Malme-3M was > 100 µM (inactive) throughout.
